The source made the active and inactive calls. The calls are words filed in the database; no cut-off is given here.

Assay [1] is filed under the species Homo sapiens. The experiment in a line: Inhibition of human recombinant FBPase using fructose-1,6-biphosphate as substrate at 10 uM incubated for 3 mins prior to substrate addition by spectrophotometric analysis.
Assay [2] is described as follows: Inhibition of human recombinant FBPase using fructose-1,6-biphosphate as substrate incubated for 3 mins prior to substrate addition by spectrophotometric analysis.

As to `CCN1C(=O)/C(=C/c2ccc(O)c(S(=O)(=O)O)c2)SC1=S`, in assay [1], the inhibition was found to be 69%. Moreover, the IC50 in assay [2] stood at 6020 nM.
As to `C[N+](C)(CCCCOc1c(Br)cc(Br)cc1Br)Cc1ccc([N+](=O)[O-])o1`, the inhibition in assay [1] worked out at 100%. In assay [2], the 50% inhibitory concentration (IC50) came out at 700 nM.
Take `O=C(O)c1ccccc1C(=O)CCC(=O)c1ccccc1C(=O)O`: the inhibition in assay [1] was found to be 87%. Also, the IC50 in assay [2] was 900 nM.
On to `CC1(C)C2CCC1(C)C(OCCC/N=C(\N)CSS(=O)(=O)O)C2` (stereo not drawn), for which the inhibition in assay [1] is 81%. The IC50 in assay [2] is 3800 nM.
The matching figures for `CCOC(=O)c1csc(-c2csc(CCNC(=O)c3ccccc3)n2)n1`: 87% and 330 nM.
For `O=C(OCc1ccc([N+](=O)[O-])cc1)c1ccccc1[N+](=O)[O-]`, in assay [1], the inhibition was determined as 100%. Also, in assay [2], the IC50 came out at 1650 nM.
As for `O=C(CCCOc1ccc(Cl)cc1Cl)NC(CC1NCc2ccccc21)C(=O)O` (stereo not drawn), in assay [1], the inhibition turned out to be 67%. Further, the IC50 in assay [2] worked out at 5880 nM.
For the compound `O=C1NC(=O)C2N=C(CNc3ccc(C(=O)O)cc3)NC2N1` (stereo not drawn), the inhibition entry in assay [1] was “inactive”.
`COc1cc(C2=N/C(=C\c3cccc(O)c3O)C(=O)O2)cc(OC)c1OC`: the inhibition entry in assay [1] was “inactive”.
Turning to `CC1(C)N=C(N)N=C(N)N1c1cccc(OCCOc2ccccc2[N+](=O)[O-])c1`, the inhibition in assay [1] came to 100%. In addition, the IC50 in assay [2] was found to be 250 nM.
On to `O=S(=O)(O)c1ccccc1/C=N/N=C/c1ccccc1S(=O)(=O)O`, for which, in assay [1], the inhibition was 100%. Also, in assay [2], the IC50 was found to be 150 nM.
With `COC(=O)CC(=O)CC(=O)c1cccc([N+](=O)[O-])c1`, the inhibition in assay [1] was 74%. Moreover, the IC50 in assay [2] came out at 2230 nM.
For the compound `Cc1cc(Cl)ccc1OCCCC(=O)NC(CC(C)C)C(=O)O` (stereo not drawn), the inhibition in assay [1] stood at 60%. Besides, the IC50 in assay [2] stood at 2440 nM.
Consider `COc1ccc(C(=O)/C=C2/Nc3ccc([N+](=O)[O-])cc3NC2=O)cc1`, for which, in assay [1], the inhibition was determined as 76%. Besides, in assay [2], the IC50 was determined as 320 nM.
For the compound `CCOc1cc2ncnc(Nc3cccc(-c4nccs4)c3)c2cc1OCC`, the IC50 in assay [2] is 380 nM.
For `CCOc1cc2nc(Cl)nc(Nc3cccc(-c4csc(C)n4)c3)c2cc1OCC`, in assay [2], the IC50 amounted to 2600 nM.
As to `CCOc1cc2ncnc(Nc3cccc(-c4ccccn4)c3)c2cc1OCC`, the IC50 in assay [2] came out at 390 nM.
With `CCOc1cc2nc(CN3CCOCC3)nc(Nc3cccc(Br)c3)c2cc1OCC`, the IC50 in assay [2] was above 10000 nM.
Turning to `O=C(O)c1[nH]c2cc(Cl)cc(Cl)c2c1CCCO`, the IC50 in assay [2] turned out to be 2700 nM.
With `CCOc1cc2ncnc(Nc3cccc(-c4csc(NC)n4)c3)c2cc1OCC`, the IC50 in assay [2] turned out to be 800 nM.
The same measure, in the same setting: in the case of `CCOc1cc2ncnc(Nc3cccc(-c4coc(C)n4)c3)c2cc1OCC` it was 500 nM; in that of `CN(C)C(=O)c1[nH]c2cc(Cl)cc(Cl)c2c1CCC(=O)O`, above 10000 nM; in that of `CCOc1cc2ncnc(Nc3cccc(-c4csc(C)n4)c3)c2cc1OCC`, at least 640 nM.
With `CCCc1nc(-c2cccc(Nc3ncnc4cc(OCC)c(OCC)cc34)c2)cs1`, the IC50 in assay [2] was above 10000 nM.
Take `COc1cc(-c2ccc(OC)nc2)c2oc(NS(=O)(=O)c3cc(Cl)ccc3Cl)nc2c1`: the IC50 in assay [2] amounted to 3500 nM.
On the same count and under the same terms, in the case of `COCCOc1cc2ncnc(Nc3cccc(-c4csc(C)n4)c3)c2cc1OC` it was above 10000 nM; in that of `CCOc1cc2ncnc(Nc3cccc(-c4csc(Cc5ccccc5)n4)c3)c2cc1OCC`, above 10000 nM; in that of `CCOc1cc2ncnc(Nc3cccc(-c4cscn4)c3)c2cc1OCC`, 390 nM.
Consider `C#Cc1cccc(Nc2ncnc3cc(OC)c(OC)cc23)c1`, for which, in assay [2], the IC50 was determined as 900 nM.
`O=S(=O)(SCCCCSS(=O)(=O)c1ccc(Cl)cc1)c1ccc(Cl)cc1`: the inhibition in assay [1] worked out at 37%.
Turning to `Cc1nc(-c2cccc(Nc3ncnc4cc5c(cc34)OCCO5)c2)cs1`, in assay [2], the IC50 is above 10000 nM.
On to `CCOc1cc2ncnc(Nc3cc(-c4csc(C)n4)ccc3C)c2cc1OCC`, for which the IC50 in assay [2] amounted to 1800 nM.
On to `CCNCc1nc(Nc2cccc(-c3csc(C)n3)c2)c2cc(OCC)c(OCC)cc2n1`, for which, in assay [2], the IC50 worked out at 6000 nM.
In the case of `Nc1cc2c(Nc3cccc(Br)c3)ncnc2cc1Cl`, the IC50 in assay [2] is above 10000 nM.
In the case of `COCCOc1cc2c(Nc3cccc(Br)c3)ncnc2cc1OC`, in assay [2], the IC50 was found to be 5500 nM.
Turning to `COc1cc(-c2cccc(N)c2)c2oc(NS(=O)(=O)c3cc(Cl)ccc3Cl)nc2c1`, the IC50 in assay [2] is 570 nM.
Turning to `COc1cc2c(Nc3cccc(-c4csc(C)n4)c3)ncnc2cc1OC(C)C`, the IC50 in assay [2] stood at 2300 nM.
Take `CCOc1cc2ncnc(Nc3cc(-c4csc(C)n4)cc(C(F)(F)F)c3)c2cc1OCC`: the IC50 in assay [2] is above 10000 nM.
Take `COc1cc2ncnc(Nc3cccc(-c4csc(C)n4)c3)c2cc1OC(C)C`: the IC50 in assay [2] was above 10000 nM.
Same read-out and setting: to `CCOc1cc2ncnc(Nc3cccc(-c4csc(N(C)C)n4)c3)c2cc1OCC` belongs 8000 nM.
On the same count and under the same terms, to `CCOc1cc2ncnc(Nc3cccc(-c4cc[nH]n4)c3)c2cc1OCC` belongs 730 nM.
For the compound `CCOc1cc2ncnc(Nc3cccc(-c4ccccc4)c3)c2cc1OCC`, the IC50 in assay [2] was above 10000 nM.
Consider `CCOc1cc2ncnc(Nc3cc(-c4csc(C)n4)ccc3OC)c2cc1OCC`, for which, in assay [2], the IC50 turned out to be 990 nM.
The same measure, in the same setting: to `CCOc1cc2nc(COC)nc(Nc3cccc(-c4csc(C)n4)c3)c2cc1OCC` belongs 1400 nM; to `CCOc1cc2nc(CCCl)nc(Nc3cccc(-c4csc(C)n4)c3)c2cc1OCC`, 1000 nM.
For the compound `CCOc1cc2ncnc(Nc3cc(-c4csc(C)n4)ccc3Br)c2cc1OCC`, in assay [2], the IC50 is above 10000 nM.
With `C=CCN1C(=O)/C(=C/c2ccccc2OCC(=O)O)SC1=S`, in assay [1], the inhibition turned out to be 77%. For the same compound, the IC50 in assay [2] stood at 3460 nM.
As for `COc1cc(/C=C/Cc2c(O)ccc3c2OCO3)cc(OC)c1OC`, the inhibition entry in assay [1] is “inactive”.
In the case of `NC(=O)c1[nH]c2cc(Cl)cc(Cl)c2c1CCC(=O)O`, the IC50 in assay [2] was above 10000 nM.
`Cc1nc(-c2cccc(Nc3ncnc4cc5ccccc5cc34)c2)cs1`: the IC50 in assay [2] is above 10000 nM.

Broadly, the inhibition is the relative decrease from the control value, in per cent. In general, IC50 refers to the concentration needed to halve the response being measured.

Source of the values: ChEMBL document CHEMBL2086262, “Ligand-based designing, in silico screening, and biological evaluation of new potent fructose-1,6-bisphosphatase (FBPase) inhibitors” (Eur J Med Chem, 2012).
